Experimental data taken from PubChem BioAssay AID1963827 (Molecular Pharmacology Branch, DTP, NCI, 2024).

Test system: 994946-033-R-J1-PDC complex spheroid viability
Assay: Anticancer human tumor 994946-033-R-J1-PDC patient-derived melanoma cell line growth inhibition [POLQ]
Conditions: for IC50: curve of first compound; for viability, T/C: stronger effect = lower value
Outline: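 PDC + HUVEC + MSC complex spheroids; POLQ inhibitors ± partner drugs; top conc. at/near clinical Cmax, else 10 microM (SN-38 1 microM), half-log dilutions; 37 degrees C, 5% CO2.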
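Also: spheroids exposed to drugs for 7 days.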
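For viability, T/C in this document: 100% = DMSO vehicle treated spheroids.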

SMILES: Nc1ccn(C2OC(CO)C(O)C2(F)F)c(=O)n1 (configuration not stated) + COC1C(OC(N)=O)C(O)C(Oc2ccc3c(O)c(NC(=O)c4ccc(O)c(CC=C(C)C)c4)c(=O)oc3c2C)OC1(C)C
- IC50 (second compound 0.0316 µM): < 31.6 nM
- IC50 (second compound 0.1 µM): < 31.6 nM
- IC50 (second compound 0.316 µM): < 31.6 nM
- IC50 (second compound 1 µM): < 31.6 nM
- IC50 (second compound 3.16 µM): 35.4 nM
- IC50 (second compound 10 µM): < 31.6 nM
- viability, T/C (second compound 0.0316 µM, first compound 0.0316 µM): 24.4%
- viability, T/C (second compound 0.0316 µM, first compound 0.1 µM): 9.96%
- viability, T/C (second compound 0.0316 µM, first compound 0.316 µM): 7.61%
- viability, T/C (second compound 0.0316 µM, first compound 1 µM): 7.06%
- viability, T/C (second compound 0.0316 µM, first compound 3.16 µM): 5.98%
- viability, T/C (second compound 0.0316 µM, first compound 10 µM): 1.31%
- viability, T/C (second compound 0.1 µM, first compound 0.0316 µM): 30.7%
- viability, T/C (second compound 0.1 µM, first compound 0.1 µM): 9.93%
- viability, T/C (second compound 0.1 µM, first compound 0.316 µM): 5.26%
- viability, T/C (second compound 0.1 µM, first compound 1 µM): 7.92%
- viability, T/C (second compound 0.1 µM, first compound 3.16 µM): 7.09%
- viability, T/C (second compound 0.1 µM, first compound 10 µM): 2.72%
- viability, T/C (second compound 0.316 µM, first compound 0.0316 µM): 26.8%
- viability, T/C (second compound 0.316 µM, first compound 0.1 µM): 7.23%
- viability, T/C (second compound 0.316 µM, first compound 0.316 µM): 6.54%
- viability, T/C (second compound 0.316 µM, first compound 1 µM): 6.27%
- viability, T/C (second compound 0.316 µM, first compound 3.16 µM): 6.01%
- viability, T/C (second compound 0.316 µM, first compound 10 µM): 3.92%
- viability, T/C (second compound 1 µM, first compound 0.0316 µM): 28.8%
- viability, T/C (second compound 1 µM, first compound 0.1 µM): 4.66%
- viability, T/C (second compound 1 µM, first compound 0.316 µM): 7.79%
- viability, T/C (second compound 1 µM, first compound 1 µM): 8.09%
- viability, T/C (second compound 1 µM, first compound 3.16 µM): 5.28%
- viability, T/C (second compound 1 µM, first compound 10 µM): 2.12%
- viability, T/C (second compound 3.16 µM, first compound 0.0316 µM): 54.6%
- viability, T/C (second compound 3.16 µM, first compound 0.1 µM): 7.74%
- viability, T/C (second compound 3.16 µM, first compound 0.316 µM): 6.32%
- viability, T/C (second compound 3.16 µM, first compound 1 µM): 6%
- viability, T/C (second compound 3.16 µM, first compound 3.16 µM): 4.45%
- viability, T/C (second compound 3.16 µM, first compound 10 µM): 1.73%
- viability, T/C (second compound 10 µM, first compound 0.0316 µM): 19.9%
- viability, T/C (second compound 10 µM, first compound 0.1 µM): 7.37%
- viability, T/C (second compound 10 µM, first compound 0.316 µM): 6.97%
- viability, T/C (second compound 10 µM, first compound 1 µM): 6.33%
- viability, T/C (second compound 10 µM, first compound 3.16 µM): 4.89%
- viability, T/C (second compound 10 µM, first compound 10 µM): 2.82%
